Converted amounts (≈) assume the structure as drawn. “Also recorded” adds a separate entry of the source. Read-outs that look alike come from different tables or passages of the source.
Key:
[1] = set-up: species or system healthy and adult men (volunteers); conditions: human, in vivo, po
Description: 250 mg Capsules of Keflex® (Shionogi & Co., (LTD-Lilly) as CEX and 250 mg capsules of Kefral® (Shionogi & Co., LTD-Lilly) as CCL were employed.
The subjects, 12 healthy and adult men aged 21 to 39 years with 1.58 to 1.83 m^2 in the body surface area.
To each subject after fasting, who had no meal after supper of the previous day, were given orally the capsules with 100 ml of warm water, and the fasting was continued for 2 hours, except giving them a prefixed amount of water. CEX and CCL were given to the 12 subjects in a cross-over method, and any drugs other than CEX or CCL were not applied for one week.
The blood was collected 8 times, just before the administration, after 0.5, 0.75, 1, 1.5, 2, 3 and 6 hours. The plasma was centrifugally separated under cooling immediately after each collection, rapidly frozen and then preserved at -20° C. until the time of measurement.
The measurement were made within a week after the collection. After the frozen samples were allowed to melt at 4° C., a series of ten-fold dilution was prepared with 0.1M of phosphate buffer (pH 6.0), on which the blood level was measured by a band culture method using Micrococcus luteus ATCC 9341 as standard. Antibiotic Medium No. 8 (Difco; hereinafter referred to as ABM 8) was employed as a medium.

[2] = tested on: Escherichia coli NIH JC-2; assay: Minimum inhibitory concentration, Escherichia coli NIH JC-2 (Table 1); assay type: cell-based; conditions: NIHJC2, dilution method, Chemotherapy 29(1), 76-79 (1981)
Description: (§1) Minimum Inhibitory Concentrations (MICs) were assayed according to the
(§2) dilution method disclosed in Chemotherapy 29(1), 76-79 (1981).

Escherichia coli No. 29 = assay: Minimum inhibitory concentration, Escherichia coli No. 29 (Table 1); assay type: cell-based; conditions: dilution method, Chemotherapy 29(1), 76-79 (1981)
Description: as §1, §2

[3] = tested on: Escherichia coli NIH JC2 or Escherichia coli No. 29; assay: Time and concentration required for 99% sterilization, both strains together (Experiment 2); assay type: cell-based; conditions: in words
Description: Additionally, the bactericidal effects of CCL were compared with those of CEX through the following in vitro tests (details of the tests are described afterwards). The concentrations of CCL or CEX and the time which are needed for diminishing 99% of the inoculum size were measured (FIG. 2, Table 2).
Heart infusion broth (Nissui Pharmaceutical Co.)
The test microorganisms at the logarithmic growth phase (about 10^6 CFU/ml) were spread into the aforementioned broth placed in tubes, to which CCL or CEX was applied at prefixed serial concentrations. Changing in the number of viable microorganisms was monitored in order to measure the time required for 99% sterilization of the inoculum size in each tube.

[4] = tested on: Staphylococcus aureus No. 1037; assay: Susceptibility (MIC) of Staphylococcus aureus No. 1037; assay type: cell-based
Description: (2)Susceptibility of the test miocroorganisms (MIC value):
(§3) 1.56 μg/ml: The value was determined by the above-identified method, where Muller-Hinton agar (Difco) as the medium was employed. Method 1.

[5] = tested on: Staphylococcus aureus No. 1021; assay: Susceptibility (MIC), Staphylococcus aureus No. 1021 (Table 3); assay type: cell-based
Description: as §3
(§4) The same procedures as in Experiment 3. were applied to the following strains. The following MIC values were also determined according to the same method as in Experiment 3.
(§5) The values with *^1 or *^2 were determined by the method 1 or 2
(§6) disclosed in Experiment 3, respectively.

[6] = tested on: Staphylococcus aureus No. 6; assay: Susceptibility (MIC), Staphylococcus aureus No. 6 (Table 3); assay type: cell-based
Description: as §3, §4, §5, §6

Escherichia coli ES-80 = assay: Susceptibility (MIC), Escherichia coli ES-80 (Table 3); assay type: cell-based
Description: as §3, §4, §5, §6

Escherichia coli ES-68 = assay: Susceptibility (MIC), Escherichia coli ES-68 (Table 3); assay type: cell-based
Description: as §3, §4, §5, §6

Escherichia coli ES-69 = assay: Susceptibility (MIC), Escherichia coli ES-69 (Table 3); assay type: cell-based
Description: as §3, §4, §5, §6

[7] = relative to CEX; cited from earlier work
[8] = clinical use; cited from earlier work

SMILES	half-life compared with CEX [1]	MIC [2] [µg/mL]	MIC (Escherichia coli No. 29) [µg/mL]	time required for 99% sterilization compared with CEX ([3]; relative to CEX, monohydrate)	MIC ([4]; NO.1037, Method 1, Muller-Hinton agar) [µg/mL]	MIC ([4]; NO.1037, Method 2, ABM 3 broth, 18 to 20 hours after inoculation (10^5 CFU/ml)) [µg/mL]	MIC ([5]; NO.1021, 10^5 CFU/ml, Method 2) [µg/mL]	MIC ([5]; NO.1021, 10^6 CFU/ml, Method 1) [µg/mL]	MIC ([6]; NO.6, 10^5 CFU/ml, Method 2) [µg/mL]	MIC ([6]; NO.6, 10^6 CFU/ml, Method 1) [µg/mL]	MIC (Escherichia coli ES-80; ES80, 10^5 CFU/ml, Method 2) [µg/mL]	MIC (Escherichia coli ES-80; ES80, 10^6 CFU/ml, Method 1) [µg/mL]	MIC (Escherichia coli ES-68; ES68, 10^5 CFU/ml, Method 2) [µg/mL]	MIC (Escherichia coli ES-68; ES68, 10^6 CFU/ml, Method 1) [µg/mL]	MIC (Escherichia coli ES-69; 10^5 CFU/ml, Method 2) [µg/mL]	MIC (Escherichia coli ES-69; Escherichia coli, ES69, 10^6 CFU/ml, Method 1, read-out: MIC) [µg/mL]	antimicrobial spectrum compared with CEX [7]	bactericidal action compared with CEX [7]	clinical effectiveness [8]	concentration needed for diminishing 99% of the inoculum size ([3]; multiples of MIC)
N[C@@H](C(=O)N[C@@H]1C(=O)N2C(C(=O)O)=C(Cl)CS[C@H]12)c1ccccc1 [CCL, 3-chloro-7-D-(2-phenylglycinamido)-3-cephem-4-carboxylic acid monohydrate]	half-life shorter	3.13	1.56	within a shorter period of time than CEX; also recorded: much shorter at any MIC of 1/2 to about 64 than for CEX	1.56	3.13	3.13	1.56	6.25	3.13	3.13	1.56	3.13	1.56	3.13	3.13	broader spectrum	more potent bactericidal action than CEX	highly effective in clinical use	
CC1=C(C(=O)O)N2C(=O)[C@@H](NC(=O)[C@H](N)c3ccccc3)[C@H]2SC1 [CEX]		6.25 (≈ 18 µM)	3.13 (≈ 9.01 µM)																	at least one MIC; also recorded: one or more MICs

From patent publication US4713247A, “Long-acting formulation of cefaclor” (priority 1983, dated 1987)
